The values below come from the PolyMetriX glass transition set.

Take `*C(=O)c1ccc2c(c1)C(=O)N(c1ccc(Oc3ccc(C(=O)c4ccc(Oc5ccc(C(=O)c6ccc(Oc7ccc(N8C(=O)c9ccc(*)cc9C8=O)cc7)cc6)cc5)cc4)cc3)cc1)C2=O` (repeat unit): the glass transition temperature was 215.00 °C.

Molecule `*C(=O)c1ccc2c(c1)C(=O)N(c1ccc(Oc3ccc(C(=O)c4ccc(Oc5ccc(N6C(=O)c7ccc(*)cc7C6=O)cc5)cc4)cc3)cc1)C2=O` (repeat unit) yielded a glass transition temperature of 252.00 °C.

Take `*CCCCCCCCCCCN1C(=O)c2ccc(C(=O)Oc3ccc(-c4ccc(OC(=O)c5ccc6c(c5)C(=O)N(*)C6=O)cc4)cc3)cc2C1=O` (repeat unit): the glass transition temperature came to 97.00 °C. `*OP(=O)(Oc1c(Cl)cc(Cl)cc1Cl)Oc1c(Cl)c(Cl)c(*)c(Cl)c1Cl` (repeat unit): the glass transition temperature was determined as 127.00 °C. For `*OP(=O)(Oc1c(Cl)cccc1Cl)Oc1c(Cl)c(Cl)c(*)c(Cl)c1Cl` (repeat unit), the glass transition temperature came to 144.00 °C.

In the case of `*OP(=O)(Oc1ccc(C)cc1)Oc1c(Br)cc(C(c2cc(Br)c(*)c(Br)c2)(C(F)(F)F)C(F)(F)F)cc1Br` (repeat unit), the glass transition temperature was determined as 146.00 °C. Then `*OP(=O)(Oc1ccc(OC)cc1)Oc1c(C)cc(S(=O)(=O)c2cc(C)c(*)c(C)c2)cc1C` (repeat unit), with 147.00 °C; and `*OP(=O)(Oc1ccccc1)Oc1ccc(-c2ccc(*)cc2)cc1` (repeat unit), with 112.00 °C. Molecule `*O[Si](*)(C)CCCOc1ccc(-c2ccc(OC(=O)CCCCC(=O)OC3CC(C)CCC3C(C)C)cc2)cc1` (repeat unit) gave a glass transition temperature of 43.30 °C.

The molecule `*O[Si](*)(C)CCCOc1ccc(C(=O)Oc2ccc(-c3ccc(OC(=O)c4cc(OCC(C)CC)c(OCC(C)CC)c(OCC(C)CC)c4)cc3)cc2)cc1` (repeat unit) came in with a glass transition temperature of 60.00 °C. Then `*O[Si](*)(C)CCCOc1ccc(C(=O)Oc2ccc(-c3ccc(OC(=O)c4cc(OCC)c(OCC)c(OCC)c4)cc3)cc2)cc1` (repeat unit), with 61.30 °C; and `*O[Si](*)(C)CCCOc1ccc(C(=O)Oc2ccc(-c3ccc(OC(=O)c4cc(OCC)cc(OCC)c4)cc3)cc2)cc1` (repeat unit), with 62.80 °C. Then `*O[Si](*)(C)CCCOc1ccc(C(=O)Oc2ccc(-c3ccc(OC(=O)c4cc(OCCCCC)c(OCCCCC)c(OCCCCC)c4)cc3)cc2)cc1` (repeat unit), with 49.00 °C; and `*O[Si](*)(C)CCCOc1ccc(C(=O)Oc2ccc(C#N)cc2)cc1` (repeat unit), with 57.00 °C. The result for `*O[Si](*)(C)CCCOc1ccc(C(=O)Oc2ccc(C(=O)Oc3ccc(OC)cc3)cc2)cc1` (repeat unit) reads 38.00 °C.

As to `*O[Si](*)(C)CCCOc1ccc(C(=O)Oc2ccc(OC)cc2)cc1` (repeat unit), the glass transition temperature came out at 37.00 °C. Consider `*O[Si](*)(C)CCCOc1ccc(C(=O)Oc2ccc(OCCCCCC)cc2)cc1` (repeat unit), for which the glass transition temperature was 15.00 °C. `*O[Si](*)(C)CCCOc1ccc2c(c1)c1cc(-c3ccc4c(c3)c3ccccc3n4CC(CC)CCCC)ccc1n2CC(CC)CCCC` (repeat unit) had a glass transition temperature of 129.00 °C.

Consider `*O[Si](*)(C)CC[Si](C)(C)O[Si](C)(C)CCCOc1cc(OC(=O)c2ccc(OCCCC)cc2)ccc1/N=N/c1ccc(OCCCC)cc1` (repeat unit), for which the glass transition temperature is -4.00 °C. The result for `*O[Si](*)(C)CC[Si](OCCOC)(OCCOC)OCCOC` (repeat unit) reads 28.90 °C; that for `*O[Si](*)(C)CCc1cc(C(=O)Oc2ccc(OC)cc2)ccc1C(=O)Oc1ccc(OC)cc1` (repeat unit), 111.00 °C.

Regarding `*O[Si](*)(C)CCc1ccc(O)cc1` (repeat unit), the glass transition temperature was 39.00 °C. In the case of `*O[Si](*)(CCCOCCOCCOCCOC)CCCOCCOCCOCCOC` (repeat unit), the glass transition temperature is -69.20 °C. Then `*O[Si](*)(CCCOCCOCCOCCOCCOCCOCCOCCOC)CCCOCCOCCOCCOCCOCCOCCOCCOC` (repeat unit), with -66.40 °C.

For the molecule `*O[Si](c1ccccc1)(c1ccccc1)c1ccc(-c2ccc([Si](*)(c3ccccc3)c3ccccc3)cc2)cc1` (repeat unit), the glass transition temperature came out at 94.00 °C.

Molecule `*O[Si](c1ccccc1)(c1ccccc1)c1ccc([Si](*)(c2ccccc2)c2ccccc2)cc1` (repeat unit) returned a glass transition temperature of 130.00 °C. `*Oc1c(-c2ccccc2)cc(*)cc1-c1ccccc1` (repeat unit) registered a glass transition temperature of 220.00 °C. In turn, `*Oc1c(C)cc(*)cc1-c1ccccc1` (repeat unit) returned a glass transition temperature of 180.00 °C. As for `*Oc1c(Cl)cc(*)cc1Cl` (repeat unit), the glass transition temperature turned out to be 176.82 °C. `*Oc1c(Cl)cc(C(c2cc(Cl)c(OC(*)=O)c(Cl)c2)C2CC3CCC2C3)cc1Cl` (repeat unit) displayed a glass transition temperature of 270.00 °C. Molecule `*Oc1c(Cl)cc(C2(c3cc(Cl)c(OC(*)=O)c(Cl)c3)CCCCC2)cc1Cl` (repeat unit) yielded a glass transition temperature of 163.00 °C. The molecule `*Oc1cc2ccccc2cc1OC(=O)c1ccc(Oc2ccc(C(*)=O)cc2)cc1` (repeat unit) registered a glass transition temperature of 148.00 °C. Regarding `*Oc1ccc(-c2ccc(OC(=O)c3ccc(C(=O)c4ccc(C(*)=O)cc4)cc3)c(-c3ccccc3)c2)cc1-c1ccccc1` (repeat unit), the glass transition temperature was 184.50 °C. Then `*Oc1ccc(-c2ccc(OC3(F)C(*)(F)C(F)(F)C3(F)F)cc2)cc1` (repeat unit), with 161.00 °C; and `*Oc1ccc(-c2ccc(Oc3c(F)c(F)c(COC(c4cccc(C(OCc5c(F)c(F)c(*)c(F)c5F)(C(F)(F)F)C(F)(F)F)c4)(C(F)(F)F)C(F)(F)F)c(F)c3F)cc2)cc1` (repeat unit), with 110.00 °C. The molecule `*Oc1ccc(C(=O)c2ccc(Oc3ccc(C4(c5ccc(*)cc5)c5ccccc5-c5ccccc54)cc3)cc2)c2ccccc12` (repeat unit) yielded a glass transition temperature of 260.00 °C. As for `*Oc1ccc(C2(c3ccc(Oc4ccc(C(=O)c5ccc(*)cc5)cc4)cc3)CCC3CCCCC3C2)cc1` (repeat unit), the glass transition temperature was determined as 214.00 °C.

The molecule `*Oc1ccc(Oc2ccc(C(=O)c3ccc(*)cc3)cc2)cc1-c1cc(C(F)(F)F)cc(C(F)(F)F)c1` (repeat unit) gave a glass transition temperature of 146.00 °C. The result for `*Oc1ccc(Oc2ccc(Oc3ccc(C(=O)c4ccc(*)cc4)cc3)cc2)cc1` (repeat unit) reads 150.50 °C; that for `*Oc1ccc(Oc2ccc(Oc3cccc(C(=O)Oc4ccc(-c5ccc(OC(=O)c6cccc(*)c6)cc5)cc4)c3)cc2)cc1` (repeat unit), 119.00 °C. For the molecule `*Oc1ccc(S(=O)(=O)c2ccc(Oc3ccc(-c4ccc(*)cc4)cc3)cc2N)c(N)c1` (repeat unit), the glass transition temperature came to 242.20 °C.

On to `*c1cc(Br)c(OC(=O)c2ccc(C(=O)Oc3c(Br)cc(C4(*)OC(=O)c5ccccc54)cc3Br)cc2)c(Br)c1` (repeat unit), for which the glass transition temperature was found to be 319.00 °C. Molecule `*c1ccc(-c2ccc(-c3ccc4nc(Oc5cc(-c6ccccc6)c6cc(*)ccc6n5)cc(-c5ccccc5)c4c3)cc2)cc1` (repeat unit) displayed a glass transition temperature of 308.00 °C. The result for `*c1ccc(-c2ccc3nc(Oc4cc(-c5ccccc5)c5cc(*)ccc5n4)cc(-c4ccccc4)c3c2)cc1` (repeat unit) reads 300.00 °C. In turn, `*c1ccc(Oc2ccc(-c3ccc(Oc4ccc(N5C(=O)c6ccc(Oc7cc8ccccc8cc7Oc7ccc8c(c7)C(=O)N(*)C8=O)cc6C5=O)cc4)cc3)cc2)cc1` (repeat unit) yielded a glass transition temperature of 222.50 °C. `*c1ccc(Oc2ccc(C(=O)c3ccc(Oc4ccc(N5C(=O)c6ccc(-c7ccc8c(c7)C(=O)N(*)C8=O)cc6C5=O)cc4)cc3)cc2)cc1` (repeat unit) registered a glass transition temperature of 253.00 °C. `*c1ccc(Oc2ccc(C(=O)c3ccc(Oc4ccc(N5C(=O)c6ccc(Oc7ccc8c(c7)C(=O)N(*)C8=O)cc6C5=O)cc4)cc3)cc2)cc1` (repeat unit) had a glass transition temperature of 243.00 °C. With `*c1ccc(Oc2ccc(C(=O)c3ccc(Oc4ccc(N5C(=O)c6ccc(Oc7cccc(Oc8ccc9c(c8)C(=O)N(*)C9=O)c7)cc6C5=O)cc4)cc3)cc2)cc1` (repeat unit), the glass transition temperature came out at 201.00 °C. The result for `*c1ccc(Oc2ccc(N3C(=O)c4ccc(Oc5ccc(-c6ccc(Oc7ccc8c(c7)C(=O)N(*)C8=O)cc6)cc5)cc4C3=O)cc2)cc1` (repeat unit) reads 229.00 °C; that for `*c1ccc(Oc2ccc(Oc3ccc(-c4cnc5cc(-c6ccc7nc(*)cnc7c6)ccc5n4)cc3)cc2)cc1` (repeat unit), 195.00 °C.

On to `*c1ccc(Oc2ccc(Oc3ccc(-c4cnc5ccc(-c6ccc7nc(*)cnc7c6)cc5n4)cc3)cc2)cc1` (repeat unit), for which the glass transition temperature turned out to be 235.00 °C. For the molecule `*c1ccc(Oc2ccc(Oc3ccc(-c4cnc5ccc(-c6ccc7ncc(*)nc7c6)cc5n4)cc3)cc2)cc1` (repeat unit), the glass transition temperature amounted to 235.00 °C.

`*c1ccc(Oc2ccc(Oc3ccc(Oc4ccc(-c5cnc6ccc(-c7ccc8nc(*)cnc8c7)cc6n5)cc4)cc3)cc2)cc1` (repeat unit) yielded a glass transition temperature of 216.00 °C. Consider `*c1ccc(Oc2ccc(Oc3ccc(Oc4ccc(-c5cnc6ccc(-c7ccc8ncc(*)nc8c7)cc6n5)cc4)cc3)cc2)cc1` (repeat unit), for which the glass transition temperature worked out at 216.00 °C.

Molecule `*c1ccc(Oc2cccc(Oc3ccc(N4C(=O)c5ccc(Oc6cc7ccccc7cc6Oc6ccc7c(c6)C(=O)N(*)C7=O)cc5C4=O)cc3)c2)cc1` (repeat unit) showed a glass transition temperature of 208.00 °C. Consider `*c1ccc(Oc2ccccc2Oc2ccc(N3C(=O)c4ccc(Oc5cc6ccccc6cc5Oc5ccc6c(c5)C(=O)N(*)C6=O)cc4C3=O)cc2)cc1` (repeat unit), for which the glass transition temperature came out at 204.00 °C.

In turn, `*c1cccc(N2C(=O)c3cccc(Oc4ccc(-c5ccc(Oc6cccc7c6C(=O)N(*)C7=O)cc5)cc4)c3C2=O)c1` (repeat unit) yielded a glass transition temperature of 275.00 °C.
